From patent publication US9376425B2, “Heterocyclic compounds as MDM2 inhibitors for the treatment of cancer” (AMGEN INC., priority 2011, dated 2016)

Target: T1, human MDM2 (GST-hMDM2 1-188), interaction with biotinylated-p53 (1-83) (Homo sapiens, UniProt Q00987)
T1 construct: Amino acid residues 1-188 of human MDM2 were expressed; made in house; host or cells: Escherichia coli
Assay: improved HTRF assay (HTRF2 assay), inhibition of HDM2-p53 interaction
Assay type: binding
Details: 0.2 nM GST-hMDM2, 0.5 nM biotinylated-p53, 100 mM KF
Procedure, shortened: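 Time-resolved fluorescence (HTRF) read after >4 h equilibration with SA-XLent/anti-GST cryptate/KF detection reagents. Reaction: compound plus GST-hMDM2 for 20 min at room temperature, then E. coli-expressed biotinylated p53 residues 1-83 for 60 min, 2% DMSO final. Inhibition expressed versus nutlin-3.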

T1 sequence (Q00987 1-188): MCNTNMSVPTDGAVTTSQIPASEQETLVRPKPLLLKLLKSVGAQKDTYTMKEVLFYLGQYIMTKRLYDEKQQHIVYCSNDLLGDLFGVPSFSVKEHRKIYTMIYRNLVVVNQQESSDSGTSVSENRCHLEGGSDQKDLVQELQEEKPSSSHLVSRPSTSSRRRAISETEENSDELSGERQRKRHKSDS

SMILES	IC50
O=C(O)C[C@H]1O[C@H](c2cccc(Cl)c2)[C@@H](c2ccc(Cl)cc2)N([C@H](CN(c2cc(F)ccc2F)S(=O)(=O)C2CC2)C2CC2)C1=O (single isomer, unassigned) [Example 275, 2-((2R,5R,6R)-6-(3-Chlorophenyl)-5-(4-chlorophenyl)-4-((S)-1-cyclopropyl-2-(N-(2,5-difluorophenyl)cyclopropanesulfonamido)ethyl)-3-oxomorpholin-2-yl)acetic acid or 2-((2S,5R,6R)-6-(3-chlorophenyl)-5-(4-chlorophenyl)-4-((S)-1-cyclopropyl-2-(N-(2,5-difluorophenyl)cyclopropanesulfonamido)ethyl)-3-oxomorpholin-2-yl)acetic acid]	< 1 nM
O=C(O)C[C@H]1O[C@H](c2cccc(Cl)c2)[C@@H](c2ccc(Cl)c(F)c2)N([C@H](CN(c2ccccc2F)S(=O)(=O)C2CC2)C2CC2)C1=O (single isomer, unassigned) [Example 314, 2-((2R,5R,6R)-5-(4-Chloro-3-fluorophenyl)-6-(3-chlorophenyl)-4-((S)-1-cyclopropyl-2-(N-(2-fluorophenyl)cyclopropanesulfonamido)ethyl)-3-oxomorpholin-2-yl)acetic acid or 2-((2S,5R,6R)-5-(4-chloro-3-fluorophenyl)-6-(3-chlorophenyl)-4-((S)-1-cyclopropyl-2-(N-(2-fluorophenyl)cyclopropanesulfonamido)ethyl)-3-oxomorpholin-2-yl)acetic acid]	< 1 nM
CC[C@@H](CS(=O)(=O)N1CCC[C@@H]1C)N1C(=O)[C@@H](CC(=O)O)O[C@H](c2cccc(Cl)c2)[C@H]1c1ccc(Cl)cc1 (single isomer, unassigned) [Example 208, 2-((2R,5R,6R)-6-(3-chlorophenyl)-5-(4-chlorophenyl)-4-((S)-1-(((S)-2-methylpyrrolidin-1-yl)sulfonyl)butan-2-yl)-3-oxomorpholin-2-yl)acetic acid or 2-((2S,5R,6R)-6-(3-chlorophenyl)-5-(4-chlorophenyl)-4-((S)-1-(((S)-2-methylpyrrolidin-1-yl)sulfonyl)butan-2-yl)-3-oxomorpholin-2-yl)acetic acid]	2 nM
CC[C@@H](CN(c1ccccc1F)S(=O)(=O)C1CC1)N1C(=O)[C@H](CC(N)=O)O[C@H](c2cccc(Cl)c2)[C@H]1c1ccc(Cl)cc1 (single isomer, unassigned) [Example 241, 2-((2S,5R,6R)-6-(3-chlorophenyl)-5-(4-chlorophenyl)-4-((S)-1-(N-(2-fluorophenyl)cyclopropanesulfonamido)butan-2-yl)-3-oxomorpholin-2-yl)acetamide or 2-((2R,5R,6R)-6-(3-chlorophenyl)-5-(4-chlorophenyl)-4-((S)-1-(N-(2-fluorophenyl)cyclopropanesulfonamido)butan-2-yl)-3-oxomorpholin-2-yl)acetamide]	1 nM
CC[C@@H](CS(=O)(=O)C1CC1)N1C(=O)[C@@H](CC(=O)O)O[C@H](c2cccc(Cl)c2)[C@H]1c1ccc(Cl)cc1 (single isomer, unassigned) [Example 213, 2-((2R,5R,6R)-6-(3-chlorophenyl)-5-(4-chlorophenyl)-4-((S)-1-(cyclopropylsulfonyl)butan-2-yl)-3-oxomorpholin-2-yl)acetic acid or 2-((2S,5R,6R)-6-(3-chlorophenyl)-5-(4-chlorophenyl)-4-((S)-1-(cyclopropylsulfonyl)butan-2-yl)-3-oxomorpholin-2-yl)acetic acid]	5 nM
O=C(O)C[C@H]1O[C@H](c2cccc(Cl)c2)[C@@H](c2ccc(Cl)cc2)N([C@H](CN(c2c(F)cccc2F)S(=O)(=O)C2CC2)C2CC2)C1=O (single isomer, unassigned) [Example 251, 2-((2R,5R,6R)-6-(3-chlorophenyl)-5-(4-chlorophenyl)-4-((S)-1-cyclopropyl-2-(N-(2,6-difluorophenyl)cyclopropanesulfonamido)ethyl)-3-oxomorpholin-2-yl)acetic acid or 2-((2S,5R,6R)-6-(3-chlorophenyl)-5-(4-chlorophenyl)-4-((S)-1-cyclopropyl-2-(N-(2,6-difluorophenyl)cyclopropanesulfonamido)ethyl)-3-oxomorpholin-2-yl)acetic acid]	< 1 nM
C[C@H]1CCCN1S(=O)(=O)C[C@H](C1CC1)N1C(=O)[C@@H](CC(=O)O)O[C@H](c2cccc(Cl)c2)[C@H]1c1ccc(Cl)cc1 (single isomer, unassigned) [Example 297, 2-((2R,5R,6R)-6-(3-Chlorophenyl)-5-(4-chlorophenyl)-4-((S)-1-cyclopropyl-2-(((S)-2-methylpyrrolidin-1-yl)sulfonyl)ethyl)-3-oxomorpholin-2-yl)acetic acid or 2-((2S,5R,6R)-6-(3-chlorophenyl)-5-(4-chlorophenyl)-4-((S)-1-cyclopropyl-2-(((S)-2-methylpyrrolidin-1-yl)sulfonyl)ethyl)-3-oxomorpholin-2-yl)acetic acid]	< 1 nM
O=C(O)C[C@H]1O[C@H](c2cccc(Cl)c2)[C@@H](c2ccc(Cl)cc2)N([C@H](CS(=O)(=O)Nc2ccccc2F)C2CC2)C1=O (single isomer, unassigned) [Example 295, 2-((2R,5R,6R)-6-(3-Chlorophenyl)-5-(4-chlorophenyl)-4-((S)-1-cyclopropyl-2-(N-(2-fluorophenyl)sulfamoyl)ethyl)-3-oxomorpholin-2-yl)acetic acid or 2-((2S,5R,6R)-6-(3-chlorophenyl)-5-(4-chlorophenyl)-4-((S)-1-cyclopropyl-2-(N-(2-fluorophenyl)sulfamoyl)ethyl)-3-oxomorpholin-2-yl)acetic acid]	2 nM
O=C(O)C[C@H]1O[C@H](c2cccc(Cl)c2)[C@@H](c2ccc(Cl)cc2)N([C@H](CN(c2ncccc2F)S(=O)(=O)C2CC2)C2CC2)C1=O (single isomer, unassigned) [Example 189, 2-((2R,5R,6R)-6-(3-chlorophenyl)-5-(4-chlorophenyl)-4-((S)-1-cyclopropyl-2-(N-(3-fluoropyridin-2-yl)cyclopropanesulfonamido)ethyl)-3-oxomorpholin-2-yl)acetic acid or 2-((2S,5R,6R)-6-(3-chlorophenyl)-5-(4-chlorophenyl)-4-((S)-1-cyclopropyl-2-(N-(3-fluoropyridin-2-yl)cyclopropanesulfonamido)ethyl)-3-oxomorpholin-2-yl)acetic acid]	< 1 nM
CNC(=O)C[C@H]1O[C@H](c2cccc(Cl)c2)[C@@H](c2ccc(Cl)cc2)N([C@H](CN(c2ccccc2F)S(=O)(=O)C2CC2)C2CC2)C1=O (single isomer, unassigned) [Example 364, 2-((2R,5R,6R)-6-(3-Chlorophenyl)-5-(4-chlorophenyl)-4-((S)-1-cyclopropyl-2-(N-(2-fluorophenyl)cyclopropanesulfonamido)ethyl)-3-oxomorpholin-2-yl)-N-methylacetamide or 2-((2S,5R,6R)-6-(3-chlorophenyl)-5-(4-chlorophenyl)-4-((S)-1-cyclopropyl-2-(N-(2-fluorophenyl)cyclopropanesulfonamido)ethyl)-3-oxomorpholin-2-yl)-N-methylacetamide]	< 1 nM
CC[C@@H](CS(=O)(=O)CCN(C)C)N1C(=O)[C@@H](CC(=O)O)O[C@H](c2cccc(Cl)c2)[C@H]1c1ccc(Cl)cc1 (single isomer, unassigned) [Example 247, 2-((2R,5R,6R)-6-(3-chlorophenyl)-5-(4-chlorophenyl)-4-((S)-1-((2-(dimethylamino)ethyl)sulfonyl)butan-2-yl)-3-oxomorpholin-2-yl)acetic acid or 2-((2S,5R,6R)-6-(3-chlorophenyl)-5-(4-chlorophenyl)-4-((S)-1-((2-(dimethylamino)ethyl)sulfonyl)butan-2-yl)-3-oxomorpholin-2-yl)acetic acid]	3 nM
CC(C)(C)S(=O)(=O)C[C@H](CC(F)(F)F)N1C(=O)[C@@H](CC(N)=O)O[C@H](c2cccc(Cl)c2)[C@H]1c1ccc(Cl)cc1 (single isomer, unassigned) [Example 363, 22-((2R,5R,6R)-4-((S)-1-(tert-Butylsulfonyl)-4,4,4-trifluorobutan-2-yl)-6-(3-chlorophenyl)-5-(4-chlorophenyl)-3-oxomorpholin-2-yl)acetamide or 2-((2S,5R,6R)-4-((S)-1-(tert-butylsulfonyl)-4,4,4-trifluorobutan-2-yl)-6-(3-chlorophenyl)-5-(4-chlorophenyl)-3-oxomorpholin-2-yl)acetamide]	23 nM
O=C(O)C[C@H]1O[C@H](c2cccc(Cl)c2)[C@@H](c2ccc(Cl)cc2)N([C@H](CS(=O)(=O)N2CCOCC2)C2CC2)C1=O (single isomer, unassigned) [Example 303, 2-((2R,5R,6R)-6-(3-Chlorophenyl)-5-(4-chlorophenyl)-4-((S)-1-cyclopropyl-2-(morpholinosulfonyl)ethyl)-3-oxomorpholin-2-yl)acetic acid or 2-((2S,5R,6R)-6-(3-chlorophenyl)-5-(4-chlorophenyl)-4-((S)-1-cyclopropyl-2-(morpholinosulfonyl)ethyl)-3-oxomorpholin-2-yl)acetic acid]	1 nM
C[C@@H](CS(=O)(=O)C(C)(C)C)N1C(=O)[C@@H](CC(=O)N2CCOCC2)O[C@H](c2cccc(Cl)c2)[C@H]1c1ccc(Cl)cc1 (single isomer, unassigned) [Example 236, (2R,5R,6R)-4-((S)-1-(tert-butylsulfonyl)propan-2-yl)-6-(3-chlorophenyl)-5-(4-chlorophenyl)-2-(2-morpholino-2-oxoethyl)morpholin-3-one or (2S,5R,6R)-4-((S)-1-(tert-butylsulfonyl)propan-2-yl)-6-(3-chlorophenyl)-5-(4-chlorophenyl)-2-(2-morpholino-2-oxoethyl)morpholin-3-one]	22 nM
